IC50 data for 30 molecules are collected here from patent US20240425519A1, “NOVEL SPIROCYCLIC COMPOUNDS AS KLHDC2 LIGANDS” (University of Washington, priority 2021, published 2024).

SMILES strings stand for the structures.

Sequence of KLHDC2 (Q9Y2U9 whole entry): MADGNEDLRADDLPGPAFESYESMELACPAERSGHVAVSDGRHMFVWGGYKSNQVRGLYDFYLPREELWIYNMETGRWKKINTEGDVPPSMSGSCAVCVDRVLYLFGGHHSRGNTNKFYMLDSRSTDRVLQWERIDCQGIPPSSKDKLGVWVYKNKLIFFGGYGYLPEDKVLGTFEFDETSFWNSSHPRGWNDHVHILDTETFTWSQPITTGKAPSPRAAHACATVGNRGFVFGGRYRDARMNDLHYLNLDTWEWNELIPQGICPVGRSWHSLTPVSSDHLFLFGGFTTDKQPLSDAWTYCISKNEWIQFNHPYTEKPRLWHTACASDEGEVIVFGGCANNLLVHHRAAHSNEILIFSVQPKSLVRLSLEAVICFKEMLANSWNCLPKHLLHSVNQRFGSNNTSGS

The first test deals with KLHDC2 (Homo sapiens (Human), UniProt Q9Y2U9). Briefly: AlphaScreen competition assay for ligand binding to KLHDC2 (GST-KLHDC2 vs biotinylated 12 aa SelK degron peptide). Conditions: formula (II) compounds; 0.12 nM GST-KLHDC2, 1.7 nM biotinylated 12 aa SelK peptide; triplicate; read-out: KLHDC2 binding activities IC50. The source says:
The following is a description of an assay for evaluating ligand binding to KLHDC2.
Amplified Luminescence Proximity Homogenous Assay (AlphaScreen) was used to monitor protein-protein interaction of two tagged components that are immobilized on beads. One component was GST-KLHDC2 (E3) and the other one was biotinylated-SelK peptide with a length of 12 amino acids (Substrate peptide). When the two components bind, they bring the Alpha beads in close proximity to each other that results in a luminescent signal.
AlphaScreen assays for determining and measuring protein-protein interactions were performed using EnSpire reader (PerkinElmer). GST-tagged KLHDC2 was attached to anti-GST AlphaScreen acceptor beads. Synthetic biotinylated 12 aa SelK degron peptide (Bio-Synthesis, Inc.) was immobilized to streptavidin-coated AlphaScreen donor beads. The donor and acceptor beads were brought into proximity by the interactions between the SelK peptide and KLHDC2. Excitation of the donor beads by a laser beam of 680 nm promotes the formation of singlet oxygen. When an acceptor bead is in close proximity, the singlet oxygen reacts with thioxene derivatives in the acceptor beads and causes the emission of 520-620 nm photons, which are detected as the binding signal. If the beads are not in close proximity to each other, the oxygen will return to its ground state and the acceptor beads will not emit light. Competition assays were performed in the presence of representative binding compounds, which were titrated at various concentrations.
The experiments were conducted with 0.12 nM of GST-KLHDC2 and 1.7 nM biotinylated 12 aa SelK peptide in the presence of 5 μg/ml donor and acceptor beads in a buffer of 25 mM HEPES, pH 7.5, 100 mM NaCl, 1 mM TCEP, 0.1% Tween-20, and 0.05 mg/ml Bovine Serum Albumin. The concentrations of the compounds used in competition assays ranged from 0.1 nM to 25 mM. The experiments were done in triplicate. IC50 values were determined using non-linear curve fitting of the dose response curves generated with Prism 4 (GraphPad).
For the molecule `CN1CCN(C(=O)C2CC2c2ccccc2)CC12CCC(=O)N(CC(=O)O)CC2` (stereo not drawn) [AC1032, 2-(1-methyl-10-oxo-4-(2-phenylcyclopropane-1-carbonyl)-1,4,9-triaza-spiro[5.6]dodecan-9-yl)-acetic acid], the IC50 was 32 µM.

Take `CC(Cc1ccccc1)C(=O)N1CCN(C)C2(CCC(=O)N(CC(=O)O)CC2)C1` (stereo not drawn) [AC1033, 2-(1-methyl-4-(2-methyl-3-phenylpropanoyl)-10-oxo-1,4,9-triazaspiro[5.6]-dodecan-9-yl)acetic acid]: the half-inhibitory concentration (IC50) worked out at 56.4 µM. Still for that read-out and setting: the value for `CN1CCN(C(=O)C2CC(F)(F)C2)CC12CCC(=O)N(CC(=O)O)CC2` (stereo not drawn) [AC1034, 2-(4-(3,3-difluorocyclo-butane-1-carbonyl)-1-methyl-10-oxo-1,4,9-triazaspiro[5.6]dodecan-9-yl)acetic acid] was 295 µM; that for `CN1CCN(C(=O)C2(c3ccc(F)cc3)CC2)CC12CCC(=O)N(CC(=O)O)CC2` (stereo not drawn) [AC1045, 2-(4-(1-(4-fluorophenyl)-cyclopropane-1-carbon-yl)-1-methyl-10-oxo-1,4,9-triazaspiro[5.6]-dodecan-9-yl)acetic acid] was 348 µM.

In the case of `CN1CCN(C(=O)C(C)(C)Oc2ccccc2)CC12CCC(=O)N(CC(=O)O)CC2` (stereo not drawn) [AC1046, 2-(1-methyl-4-(2-methyl-2-phenoxypropanoyl)-10-oxo-1,4,9-triazaspiro[5.6]-dodecan-9-yl)acetic acid], the IC50 came out at 202 µM.

With `CN1CCN(C(=O)[C@H]2C[C@@H](NC(=O)OC(C)(C)C)C2)CC12CCC(=O)N(CC(=O)O)CC2` (stereo partly drawn) [AC1047, 2-(4-((1,3-trans)-3-((tert-butoxycarbonyl)amino)-cyclobutane-1-carbonyl)-1-methyl-10-oxo-1,4,9-triazaspiro[5.6]dodecan-9-yl)acetic acid], the half-maximal inhibitory concentration (IC50) was determined as 493 µM. With `CN1CCN(C(=O)C2(O)CCCC2)CC12CCC(=O)N(CC(=O)O)CC2` (stereo not drawn) [AC1048, 2-(4-(1-hydroxycyclopen-tane-1-carbonyl)-1-meth-yl-10-oxo-1,4,9-triaza-spiro[5.6]dodecan-9-yl)-acetic acid], the concentration for half-maximal inhibition (IC50) was found to be 116 µM. Same read-out and setting: the value for `CN1CCN(C(=O)NC2CCC2)CC12CCC(=O)N(CC(=O)O)CC2` (stereo not drawn) [AC1049, 2-(4-(cyclobutylcarbam-oyl)-1-methyl-10-oxo-1,4,9-triazaspiro[5.6]-dodecan-9-yl)acetic acid] was 91.7 µM; that for `CN1CCN(C(=O)Nc2ccccc2)CC12CCC(=O)N(CC(=O)O)CC2` (stereo not drawn) [AC1050, 2-(1-methyl-10-oxo-4-(phenylcarbamoyl)-1,4,9-triazaspiro[5.6]dodecan-9-yl)acetic acid] was 33.6 µM. The same measure, in the same setting: the value for `CN1CCN(C(=O)NCc2ccccc2)CC12CCC(=O)N(CC(=O)O)CC2` (stereo not drawn) [AC1051, 2-(4-(benzylcarbamoyl)-1-methyl-10-oxo-1,4,9-triazaspiro[5.6]dodecan-9-yl)acetic acid] was 45.9 µM; that for `CN1CCN(C(=O)C2CC2)CC12CCC(=O)N(CC(=O)O)CC2` (stereo not drawn) [AC1052, 2-(4-(cyclopropanecar-bonyl)-1-methyl-10-oxo-1,4,9-triazaspiro[5.6]-dodecan-9-yl)acetic acid] was 100 µM. Still for that read-out and setting: with `CC(C(=O)N1CCN(C)C2(CCC(=O)N(CC(=O)O)CC2)C1)c1ccc(O)cc1` (stereo not drawn) [AC1062, 2-(4-(2-(4-hydroxyphen-yl)propanoyl)-1-methyl-10-oxo-1,4,9-triazaspiro-[5.6]dodecan-9-yl)acetic acid] the figure was 19.8 µM. In the case of `COC(C)(C(=O)N1CCN(C)C2(CCC(=O)N(CC(=O)O)CC2)C1)c1ccccc1` (stereo not drawn) [AC1063, 2-(4-(2-methoxy-2-phen-ylpropanoyl)-1-methyl-10-oxo-1,4,9-triazaspiro-[5.6]dodecan-9-yl)acetic acid], the half-inhibitory concentration (IC50) is 131 µM.

Turning to `CN1CCN(C(=O)c2cnn(-c3ccccc3)c2)CC12CCC(=O)N(CC(=O)O)CC2` (stereo not drawn) [AC1064, 2-(1-methyl-10-oxo-4-(1-phenyl-1H-pyrazole-4-carbonyl)-1,4,9-triaza-spiro[5.6]dodecan-9-yl)-acetic acid], the IC50 came to 148 µM.

Regarding `CN1CCN(C(=O)[C@@H]2CCN2C(=O)OC(C)(C)C)CC12CCC(=O)N(CC(=O)O)CC2` (stereo partly drawn) [AC1065, 2-(4-((S)-1-(tert-butoxy-carbonyl)azetidine-2-carbonyl)-1-methyl-10-oxo-1,4,9-triazaspiro[5.6]-dodecan-9-yl)acetic acid], the IC50 was 496 µM. Still for that read-out and setting: with `CN1CCN(C(=O)C2CC(=O)N(Cc3ccccc3)C2)CC12CCC(=O)N(CC(=O)O)CC2` (stereo not drawn) [AC1066, 2-(4-(1-benzyl-5-oxo-pyrrolidine-3-carbonyl)-1-methyl-10-oxo-1,4,9-triazaspiro[5.6]dodecan-9-yl)acetic acid] the figure was 65.9 µM; with `CC(=O)N1CCC(C(=O)N2CCN(C)C3(CCC(=O)N(CC(=O)O)CC3)C2)CC1` (stereo not drawn) [AC1068, 2-(4-(1-acetylpiperidine-4-carbonyl)-1-methyl-10-oxo-1,4,9-triazaspiro-[5.6]dodecan-9-yl)acetic acid], 191 µM; with `CN1CCN(C(=O)C2CN(Cc3ccccn3)C2)CC12CCC(=O)N(CC(=O)O)CC2` (stereo not drawn) [AC1069, 2-(1-methyl-10-oxo-4-(1-(pyridin-2-ylmethyl)azeti-dine-3-carbonyl)-1,4,9-triazaspiro[5.6]dodecan-9-yl)acetic acid], 4.6 µM.

As for `CN1CCN(C(=O)[C@H]2CCCN2C(=O)c2ccccc2)CC12CCC(=O)N(CC(=O)O)CC2` (stereo partly drawn) [AC1071, 2-(4-(benzoyl-D-prolyl)-1-methyl-10-oxo-1,4,9-triazaspiro[5.6]dodecan-9-yl)acetic acid], the IC50 was 45.4 µM.

Still in this test, the particulars now being: formula (III) compounds; 0.12 nM GST-KLHDC2, 1.7 nM biotinylated 12 aa SelK peptide; triplicate; read-out: KLHDC2 binding activities IC50.
With `CC(=O)N1CCc2nc(N3CCN(C)C4(CCC(=O)N(CC(=O)O)CC4)C3)ncc2C1` (stereo not drawn) [AC1030, 2-(4-(6-acetyl-5,6,7,8-tetra-hydropyrido[4,3-d]pyrimidin-2-yl)-1-methyl-10-oxo-1,4,9-triazaspiro[5.6]dodecan-9-yl)-acetic acid], the IC50 was determined as 445 µM.

`Cc1nc(N)nc(N2CCN(C)C3(CCC(=O)N(CC(=O)O)CC3)C2)c1Cl` (stereo not drawn) [AC1031, 2-(4-(2-amino-5-chloro-6-methylpyrimidin-4-yl)-1-methyl-10-oxo-1,4,9-triaza-spiro[5.6]dodecan-9-yl)acetic acid]: the half-maximal inhibitory concentration (IC50) is 389 µM. For the molecule `CN1CCN(c2nccc(C(=O)O)n2)CC12CCC(=O)N(CC(=O)O)CC2` (stereo not drawn) [AC1035, 2-(9-(carboxymethyl)-1-meth-yl-10-oxo-1,4,9-triazaspiro-[5.6]dodecan-4-yl)pyrimidine-4-carboxylic acid], the IC50 was 123 µM.

The same test, now with this note: formula (IV) compounds; 0.12 nM GST-KLHDC2, 1.7 nM biotinylated 12 aa SelK peptide; triplicate; read-out: KLHDC2 binding activities IC50.
In the case of `CC(C(=O)N1CCCC2(CCN(CC(=O)O)C(=O)CO2)C1)c1ccccc1` (stereo not drawn) [AC890, 2-(9-oxo-2-(2-phenylpropano-yl)-7-oxa-2,10-diazaspiro[5.6]-dodecan-10-yl)acetic acid], the IC50 worked out at 50 µM. Same read-out and setting: with `O=C(O)CN1CCC2(CCCN(C(=O)C3CCCC3)C2)OCC1=O` (stereo not drawn) [AC903, 2-(2-(cyclopentanecarbonyl)-9-oxo-7-oxa-2,10-diazaspiro-[5.6]dodecan-10-yl)acetic acid] the figure was 40.1 µM; with `O=C(O)CN1CCC2(CCCN(C(=O)C3CCC3)C2)OCC1=O` (stereo not drawn) [AC904, 2-(2-(cyclobutanecarbonyl)-9-oxo-7-oxa-2,10-diazaspiro-[5.6]dodecan-10-yl)acetic acid], 51 µM; with `O=C(O)CN1CCC2(CCCN(c3ccnc(N4CCC(O)C4)n3)C2)OCC1=O` (stereo not drawn) [AC935, 2-(2-(2-(3-hydroxypyrrolidin-1-yl)pyrimidin-4-yl)-9-oxo-7-oxa-2,10-diazaspiro[5.6]-dodecan-10-yl)acetic acid], 47.5 µM. The same measure, in the same setting: the value for `Cc1nccc(N2CCCC3(CCN(CC(=O)O)C(=O)CO3)C2)n1` (stereo not drawn) [AC947, 2-(2-(2-methylpyrimidin-4-yl)-9-oxo-7-oxa-2,10-diazaspiro-[5.6]dodecan-10-yl)acetic acid] was 1390 µM; that for `C[C@H](C(=O)N1CCC[C@]2(CCN(CC(=O)O)C(=O)CO2)C1)c1ccccc1` [AC0978, 2-((S)-9-oxo-2-((S)-2-phenyl-propanoyl)-7-oxa-2,10-diaza-spiro[5.6]dodecan-10-yl)acetic acid] was 22.1 µM; that for `C[C@H](C(=O)N1CCC[C@@]2(CCN(CC(=O)O)C(=O)CO2)C1)c1ccccc1` [AC0979, 2-((R)-9-oxo-2-((S)-2-phenyl-propanoyl)-7-oxa-2,10-diaza-spiro[5.6]dodecan-10-yl)acetic acid] was 63.7 µM. Same read-out and setting: the value for `C[C@@H](C(=O)N1CCCC2(CCN(CC(=O)O)C(=O)CO2)C1)c1ccccc1` (stereo partly drawn) [AC1028, 2-(9-oxo-2-((R)-2-phenylpro-panoyl)-7-oxa-2,10-diaza-spiro[5.6]dodecan-10-yl)acetic acid] was 39.6 µM.

A word on the IC50: it is the point on the concentration scale where inhibition reaches its midpoint.
